{"source": "patent US9512152B2", "about": "“Phospholipid compound containing unsaturated fatty acid derivative having cyclopropane ring” (NISHIZAKI BIOINFORMATION RESEARCH INSTITUTE, priority 2013, dated 2016)", "key": {"[1]": {"settings": "induced by scopolamine; non-patent documents 1, 2; cited from earlier work"}, "[2]": {"system": "3T3L1-GLUT4myc adipocytes", "test": "Analysis of GLUT4 trafficking (cellular membrane transport of GLUT4)", "type": "cell-based", "settings": "1 μM, 20 min, FIG. 7", "description": "3T3L1-GLUT4myc fibroblast strain expressing GLUT4myc was used. The cells are constructed by inserting human c-MYC epitope (14 amino acids) into the first ectodomain. The cells were cultured in Dulbecco's Modified Eagles Medium (DMEM) added with 10% (v/v) bovine serum, penicillin (final concentration, 100 U/ml) and streptomycin (final concentration, 0.1 mg/ml) in a humid environment under 5% CO2 and 95% air at 37° C. When the cells reached confluence (day 0), the medium was exchanged with DMEM added with 10% (v/v) fetal bovine serum (FBS), 1 μM dexamethasone, 0.5 mM 3-isobutyl-methyl-xanthine and 0.1 mg/ml insulin to allow for differentiation from fibroblast into adipocyte. The medium was exchanged with DMEM added with 10% (v/v) FBS on day 3, day 7 and day 11. On day 14, the cells were used for the experiment.\n3T3L1-GLUT4myc adipocytes were incubated in Krebs-Ringer-HEPES buffer [136 mM NaCl, 4.7 mM KCl, 1.25 mM CaCl2, 1.25 mM MgSO4 and 20 mM HEPES, pH 7.5] containing 0.2% (w/v) bovine serum albumin and added with 10 mM glucose at 37° C. for 1 hr. The cells were incubated in the presence or absence of insulin, phospholipid or a derivative thereof for 20 min. Then, the cells were homogenized by sonication in an ice-cooled mitochondria buffer containing 1% (v/v) protease inhibitor cocktail [210 mM mannitol, 70 mM sucrose, and 1 mM ethylenediaminetetraacetic acid (EDTA), 10 mM HEPES, pH 7.5]. Sequentially, the homogenate was centrifuged at 4° C. for 5 min at 3,000 rpm. The supernatant was further centrifuged at 4° C. for 15 min at 11,000 rpm. […] The protein concentration of each fraction was measured using BCA protein assay kit (Thermo Fisher Scientific, Waltham, Mass., USA). […] The immunoreactivity was detected using ECL kit (Invitrogen), and visualized using a chemical luminescence detection system (chemiluminescence detection system; GE Healthcare, Piscataway, N.J., USA). The signal density was measured using an image analysis software (Image Gauge software; GE Healthcare)."}, "[3]": {"settings": "patent document 2; cited from earlier work"}, "synapse transmission": {"system": "synapse transmission", "settings": "patent document 1; cited from earlier work"}}}
{"compound": "CCCCC/C=C\\C/C=C\\CCCCCCCC(=O)OC[C@H](COP(=O)([O-])OCC[N+](C)(C)C)OC(=O)CCCCCCC/C=C\\C/C=C\\CCCCC", "note": "[1,2-dilinoleoyl-sn-glycero-3-phosphocholine]", "values": [{"measurement": "Improvement of spatial learning disorder and memory disorder", "setting": "[1]", "value": "improve spatial learning disorder and memory disorder induced by scopolamine"}]}
{"compound": "CCCCCCCC/C=C\\CCCCCCCC(=O)O[C@H](COC(=O)CCCCCCCCCCCCCCC)COP(=O)([O-])OCC[N+](C)(C)C", "note": "[1-palmitoyl-2-oleoyl-sn-glycero-3-phosphocholine]", "values": [{"measurement": "Improvement of spatial learning disorder and memory disorder", "setting": "[1]", "value": "improve spatial learning disorder and memory disorder induced by scopolamine"}]}
{"compound": "insulin: insulin, comparison treatment in the GLUT4 trafficking analysis [reference compound]", "values": [{"measurement": "Promotion of cellular membrane transport of GLUT4", "setting": "[2]", "value": "an action to promote cellular membrane transport of GLUT4"}]}
{"compound": "CCCCC/C=C/C/C=C/CCCCCCCC(=O)OCC(COP(=O)(O)OCCN)OC(=O)CCCCCCC/C=C/C/C=C/CCCCC", "note": "(centres unmarked) [dilinoleoyl•phosphatidylethanolamine]", "values": [{"measurement": "Cell death induction suppressive activity / endoplasmic reticulum stress suppressive activity", "setting": "[3]", "value": "cell death induction suppressive activity, particularly, endoplasmic reticulum stress suppressive activity"}]}
{"compound": "CCCCCC1CC1CC1CC1CCCCCCCC(=O)O", "note": "(centres unmarked) [DCP-LA, 8-[2-(2-Pentyl-cyclopropylmethyl)-cyclopropyl]-octanoic acid]", "values": [{"measurement": "Enhancement of synapse transmission (LTP-like)", "setting": "synapse transmission", "value": "can maintain stable LTP (long-teLm potentiation)-like enhancement of synapse transmission"}]}
